These results are taken from PubChem BioAssay (NCI).

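Following 48 hours of exposure in 96-well plates, responses at five concentrations were used to interpolate endpoints linearly. GI50 marks 50% less growth. TGI denotes the concentration required for complete inhibition of growth.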

Assay in all cases: NCI-60 cell line screen, 48 h
The test system of experiment [1] is HCT-116 colon.
Experiment [2] has as its system SNB-19 CNS.
For experiment [3], the system named is HT29 colon.
Experiment [4] concerns OVCAR-5 ovarian.
Experiment [5] has as its system K-562 leukemia.
Experiment [6] has as its system A498 renal.
The test system of experiment [7] is IGROV1 ovarian.
The test system of experiment [8] is UO-31 renal.
Experiment [9] concerns TK-10 renal.
For experiment [10], the system named is KM12 colon.

As to `Nc1ccc(/C=C/C(=O)NCc2cc3cc(-c4ccc(C(=O)N5CCC(F)(F)CC5)cc4)cc(-c4ccc(F)cc4)c3o2)cn1`, the GI50 in experiment [1] was 0.0491 µM; in [2], 3.96 µM; in experiment [3] it was 1.89 µM; in experiment [4], 8.43 µM; in [5] it was 0.356 µM; in [6], > 100 µM. For the same compound, the GI50 is > 44.7 µM in experiment [7], > 47.6 µM in experiment [8], > 100 µM in experiment [9] and 1.21 µM in experiment [10]. For the same compound, the TGI in experiment [1], in experiment [2], in experiment [3], in experiment [4], in experiment [5] and in experiment [6] was > 100 µM throughout. Moreover, the TGI in experiment [7], in [8], in experiment [9] and in experiment [10] was > 100 µM each time.

Regarding `Cc1nc(C(N)=S)sc1C(=O)/C=C/c1c(O)ccc2ccccc12`, the TGI in experiment [1] was > 100 µM; in experiment [2], > 100 µM; in [3], > 100 µM; in experiment [4], > 100 µM; in [5], > 64.7 µM; in experiment [6], > 100 µM. Besides, the TGI in [7] was > 100 µM; in experiment [8] it was > 100 µM; in experiment [9], > 100 µM; in [10], > 93.1 µM.

`COC(=O)C1(O)CC(=O)CCC1c1ccc(OC)cc1` (stereo unspecified): the TGI in experiment [1], in experiment [2], in [3], in experiment [4], in [5] and in [6] was > 100 µM each time. Besides, the TGI in experiment [7], in experiment [8], in [9] and in experiment [10] was > 100 µM throughout.

In the case of `Cc1c(C(=O)O)oc2ccc([N+](=O)[O-])cc12`, the TGI in [1], in experiment [2], in experiment [3], in experiment [4], in experiment [5] and in [6] was > 100 µM each time. Moreover, the TGI in [7], in experiment [8], in experiment [9] and in experiment [10] was > 100 µM throughout.

As to `CCNC(=O)c1noc(-c2cc(C(C)C)c(O)cc2O)c1-c1ccc(CN2CCOCC2)cc1`, the GI50 in experiment [1] was 0.0313 µM; in experiment [2], 0.0762 µM; in [3] it was 0.0343 µM; in experiment [4], 0.0631 µM; in [5] it was < 0.0172 µM; in experiment [6] it was 0.0418 µM. Besides, the GI50 was < 0.0224 µM in experiment [7], 0.0457 µM in experiment [8], 0.0233 µM in [9] and 0.0203 µM in experiment [10]. Besides, the TGI in [1] was 15.5 µM; in [2], > 100 µM; in experiment [3], 2.09 µM; in experiment [4] it was 29.3 µM; in [5], > 46.3 µM; in [6], 17.5 µM. Also, the TGI was > 100 µM in experiment [7], > 100 µM in experiment [8], 14.8 µM in [9] and 0.0741 µM in [10].

Take `CC(C)(Oc1ccc(/C=C/C(=O)c2ccc(Cl)cc2)cc1)C(=O)Nc1c(Cl)cccc1Cl`: the TGI in [1] is 18.5 µM; in experiment [2], > 100 µM; in experiment [3] it was 28 µM; in [4], > 100 µM; in experiment [5] it was > 100 µM; in [6], 32.4 µM. Besides, the TGI is 76.3 µM in experiment [7], 54.2 µM in experiment [8], > 100 µM in experiment [9] and 25 µM in [10].

Take `CCOC(=O)c1cc2c3c(c(O)c(OC)c2s1)N(C(=O)c1cc2c4c(c(O)c(OC)c2s1)N(C(C)=O)CC4)CC3`: the TGI in experiment [1], in experiment [2], in experiment [3], in experiment [4], in experiment [5] and in [6] was > 100 µM throughout. In addition, the TGI in experiment [7], in [8], in [9] and in experiment [10] was > 100 µM in each case.

As to `O=C(O)[C@@H](Cc1ccc2ccccc2c1)NC(=O)n1c2ccccc2c2ccccc21`, the GI50 in experiment [1] was 2.32 µM; in experiment [2] it was 3.57 µM; in experiment [3], 3.08 µM; in [4] it was 5.05 µM; in experiment [5] it was 1.41 µM; in [6], 2.23 µM. Moreover, the GI50 in experiment [7] is 4.06 µM; in experiment [8], 5.18 µM; in [9], 14.9 µM; in experiment [10] it was 2.18 µM. The TGI in experiment [1] is 11.8 µM; in experiment [2], 17 µM; in experiment [3] it was 8.33 µM; in experiment [4], > 100 µM; in experiment [5] it was > 100 µM; in [6], 9.31 µM. The TGI was 80.7 µM in experiment [7], 45.5 µM in experiment [8], > 100 µM in experiment [9] and 14.3 µM in experiment [10].

As for `O=C(O)[C@H](c1ccccc1)[C@@H](C(=O)O)c1ccccc1`, the TGI in experiment [1], in [2], in experiment [3], in experiment [4], in experiment [5] and in experiment [6] was > 100 µM each time. Further, the TGI in experiment [7], in [8], in experiment [9] and in experiment [10] was > 100 µM in each case.

Consider `O=C(O)c1ccccc1/C=N/N=C1c2ccccc2-c2ccccc21`, for which the TGI in [1], in experiment [2], in experiment [3], in [4], in experiment [5] and in experiment [6] was > 100 µM in each case. Moreover, the TGI in [7] was > 100 µM; in experiment [8], > 100 µM; in experiment [9], > 100 µM; in experiment [10] it was 58.7 µM.

For the compound `Nc1ncnc2c1ncn2CC(O)CO` (stereo unspecified), the TGI in [1], in experiment [2], in [3], in experiment [5], in experiment [6] and in [7] was > 100 µM throughout. The TGI in experiment [8], in experiment [9] and in experiment [10] was > 100 µM each time.

On to `c1c[nH]c(CN2CCOCC2)n1`, for which the TGI in [1], in [2], in [3], in experiment [4], in experiment [5] and in [6] was > 100 µM in each case. In addition, the TGI in [7], in experiment [8], in [9] and in experiment [10] was > 100 µM in each case.

In the case of `C[C@H]1CCCC(O)C(O)[C@@H]2C[C@H](O[Si](C)(C)C(C)(C)C)C[C@H]2[C@H](O[Si](C)(C)C(C)(C)C)C(O)C(O)C(=O)O1` (stereo partly specified), the GI50 in [1] is 28.3 µM; in experiment [2], 15.9 µM; in experiment [3], 62.7 µM; in [4] it was 31.8 µM; in experiment [5] it was 69.4 µM; in experiment [6], 40.4 µM. Besides, the GI50 in [7] is 16.2 µM; in experiment [8], 42.2 µM; in [9], 17.2 µM; in [10] it was 37.5 µM. Also, the TGI in experiment [1] is > 100 µM; in experiment [2], 46.7 µM; in experiment [3], > 100 µM; in experiment [4], > 100 µM; in experiment [5], > 100 µM; in [6], > 100 µM. In addition, the TGI in [7] was 43 µM; in [8] it was > 100 µM; in [9], 43.2 µM; in [10], > 100 µM.

Regarding `COc1ccc(C(=O)NCCN(C)C)c2nc3ccccc3nc12`, the TGI was 12.8 µM in [1]; > 53 µM in [2]; 15.1 µM in experiment [3]; 16 µM in experiment [4]; 5.72 µM in experiment [5]; 16.3 µM in [6]. Moreover, the TGI in [8] is > 52 µM; in experiment [9], 76.7 µM; in experiment [10] it was 32.4 µM.

Regarding `Cc1ccc(-c2nc3nc(-c4ccc(F)cc4)nc(N4CCCNCC4)c3o2)cc1`, the GI50 in experiment [1] was 0.457 µM; in experiment [2] it was 1.7 µM; in experiment [4] it was 1.65 µM; in [5], 0.225 µM; in experiment [6] it was 1.68 µM; in experiment [7] it was 1.59 µM. Also, the GI50 is 1.44 µM in experiment [8], 1.66 µM in [9] and 1.79 µM in experiment [10]. Besides, the TGI in experiment [1] came out at 1.73 µM; in experiment [2], 3.22 µM; in [4], 3 µM; in [5] it was 0.539 µM; in experiment [6], 3.12 µM; in [7], 3.01 µM. The TGI in experiment [8] amounted to 2.79 µM; in experiment [9], 3.09 µM; in experiment [10], 3.42 µM.

With `C=C(C)C1C/C=C(/C)CCCC2(CCC3=C(CC(C(=C)C)C/C=C(/C)CCC3)O2)C(=O)C1` (stereo unspecified), the TGI in experiment [1], in experiment [2], in experiment [3], in experiment [5], in [6] and in experiment [7] was > 100 µM in each case. Also, the TGI in experiment [8], in experiment [9] and in experiment [10] was > 100 µM in each case.

Take `COc1ccc2[nH]c3c(c2c1)[C@H](C)C[C@@H]1C(=O)N(c2ccccc2)C(=O)[C@H]31`: the TGI was 38.8 µM in experiment [1]; > 100 µM in [2]; > 100 µM in experiment [4]; > 100 µM in [5]; 64.9 µM in experiment [6]; > 100 µM in [7]. In addition, the TGI is > 100 µM in experiment [8], > 100 µM in experiment [9] and 41.9 µM in experiment [10].

For `C/C(=N\NC(=O)CC#N)c1c(O)cc(C)oc1=O`, the TGI in [1], in experiment [2], in [3], in [5], in [6] and in experiment [7] was > 100 µM throughout. The TGI in [8], in [9] and in experiment [10] was > 100 µM in each case.

As to `CN(C)C(=S)/N=c1\ssc(=S)n1Cc1ccncc1`, the TGI in experiment [1] is 47.8 µM; in experiment [2], > 100 µM; in experiment [4] it was > 100 µM; in [5], > 100 µM; in experiment [6] it was 73.8 µM; in [7], 63.3 µM. The figures for the TGI in experiment [8], in experiment [9] and in experiment [10] were 88.5 µM, 80.3 µM and 16.8 µM, respectively.

As for `CC(=O)OCC1OC(N2C(=O)C(=O)c3ccccc32)C(OC(C)=O)C(OC(C)=O)C1OC(C)=O` (stereo unspecified), the TGI in experiment [2], in [3], in [5], in experiment [6], in experiment [7] and in experiment [8] was > 100 µM throughout. For the same compound, the TGI in experiment [9] and in experiment [10] was > 100 µM in each case.

Take `COc1cc2c(cc1OC)C(C(=O)c1cccc(OC)c1OC)C(=O)N(C)CC2` (stereo unspecified): the TGI in experiment [1], in [2], in [3], in [5], in experiment [6] and in experiment [7] was > 100 µM in each case. Further, the TGI in experiment [8], in experiment [9] and in experiment [10] was > 100 µM throughout.

Take `CC(=O)N1CCC2(c3ccccc3N(C(C)=O)C2c2ccc(O)cc2)C1C(=O)O` (stereo unspecified): the TGI in [1], in experiment [2], in [3], in experiment [4], in experiment [5] and in experiment [6] was > 100 µM in each case. In addition, the TGI in [8], in experiment [9] and in [10] was > 100 µM throughout.

Take `O=c1c2cc(Br)ccc2nc(CCl)n1-c1ccc(O)c([N+](=O)[O-])c1`: the TGI is 68.2 µM in [3]; > 100 µM in experiment [4]; 48.5 µM in [5]; 90.2 µM in experiment [6]; 51.6 µM in [7]; 29.9 µM in experiment [8]. The TGI in experiment [9] was determined as 32.8 µM; in [10], 39.1 µM.
